Test results taken from ChEMBL document CHEMBL3885861, “Open TG-GATES”.

Species on record: Rattus norvegicus
Experiment: Open TG-GATES - Regimen: Single
Format: toxicity, organism-based, Sprague-Dawley
Set-up: regimen Single, gender Male, age 6 weeks
Settings: in vivo, po, 6 mg/kg, route gavage, dose level Low; for APTT / Bas / Eos / Fbg / Hb / Ht / Lym / MCH / MCHC / MCV / Mono / Neu / PT / Plat / RBC / Ret / WBC: tissue Blood; for LIVER: tissue Liver; for A/G / ALP / ALT / AST / BUN / CRE / Ca / Cl / DBIL / GLC / IP / K / LDH / Na / PL / RALB / TBIL / TC / TG / TP / gamma-GTP: tissue Plasma

## O=[N+]([O-])c1ccc(O)c([N+](=O)[O-])c1 [2,4-DINITROPHENOL]
3 h
  TERMINAL_BW: 204.4 g
  APTT: 17 s
  Bas: 0%
  Eos: 0.8%
  Fbg: 232 mg/dL
  Hb: 12.9 g/dL
  Ht: 38.5%
  Lym: 74.8%
  MCH: 21.6 pg
  MCHC: 33.5%
  MCV: 64.6 fL
  Mono: 9.6%
  Neu: 14.8%
  PT: 12.2 s
  Plat: 124.6 x10_4/uL
  RBC: 595.6 x10_4/ul
  Ret: 9.1%
  WBC: 105.2 x10_2/uL
  LIVER: 9.7 g
  A/G: 2.4
  ALP: 1437.4 IU/L
  ALT: 38 IU/L
  AST: 69 IU/L
  BUN: 11 mg/dL
  CRE: 0.4 mg/dL
  Ca: 11.2 mg/dL
  Cl: 103.2 meq/L
  DBIL: 0.014 mg/dL
  GLC: 185.2 mg/dL
  IP: 10.4 mg/dL
  K: 4.3 meq/L
  LDH: 110.2 IU/L
  Na: 138.4 meq/L
  PL: 139.8 mg/dL
  RALB: 3.8 g/dL
  TBIL: 0.046 mg/dL
  TC: 79 mg/dL
  TG: 57 mg/dL
  TP: 5.4 g/dL
  gamma-GTP: 0 IU/L
6 h
  TERMINAL_BW: 202.3 g
  APTT: 16.3 s
  Bas: 0%
  Eos: 1%
  Fbg: 252.2 mg/dL
  Hb: 13 g/dL
  Ht: 38.9%
  Lym: 73%
  MCH: 21.3 pg
  MCHC: 33.4%
  MCV: 63.9 fL
  Mono: 10%
  Neu: 16.4%
  PT: 12.1 s
  Plat: 124.2 x10_4/uL
  RBC: 608.6 x10_4/ul
  Ret: 9.3%
  WBC: 116.8 x10_2/uL
  LIVER: 9.2 g
  A/G: 2.4
  ALP: 1588.6 IU/L
  ALT: 35.4 IU/L
  AST: 69.2 IU/L
  BUN: 10.6 mg/dL
  CRE: 0.4 mg/dL
  Ca: 10.9 mg/dL
  Cl: 105.2 meq/L
  DBIL: 0.012 mg/dL
  GLC: 198 mg/dL
  IP: 9.3 mg/dL
  K: 4.4 meq/L
  LDH: 135.6 IU/L
  Na: 139 meq/L
  PL: 154 mg/dL
  RALB: 3.9 g/dL
  TBIL: 0.05 mg/dL
  TC: 92.4 mg/dL
  TG: 61.4 mg/dL
  TP: 5.6 g/dL
  gamma-GTP: 0 IU/L
9 h
  TERMINAL_BW: 199.2 g
  APTT: 15.6 s
  Bas: 0%
  Eos: 1%
  Fbg: 244.6 mg/dL
  Hb: 12.9 g/dL
  Ht: 38.5%
  Lym: 72%
  MCH: 21.7 pg
  MCHC: 33.5%
  MCV: 64.7 fL
  Mono: 12.8%
  Neu: 14.4%
  PT: 11.9 s
  Plat: 125.6 x10_4/uL
  RBC: 595 x10_4/ul
  Ret: 8.8%
  WBC: 87.8 x10_2/uL
  LIVER: 8.6 g
  A/G: 2.5
  ALP: 1398.6 IU/L
  ALT: 31.4 IU/L
  AST: 66.2 IU/L
  BUN: 11.4 mg/dL
  CRE: 0.4 mg/dL
  Ca: 11 mg/dL
  Cl: 104.4 meq/L
  DBIL: 0.01 mg/dL
  GLC: 191.4 mg/dL
  IP: 10.7 mg/dL
  K: 4.9 meq/L
  LDH: 145 IU/L
  Na: 138.4 meq/L
  PL: 157.4 mg/dL
  RALB: 3.9 g/dL
  TBIL: 0.046 mg/dL
  TC: 93.2 mg/dL
  TG: 57.6 mg/dL
  TP: 5.5 g/dL
  gamma-GTP: 0.2 IU/L
24 h
  TERMINAL_BW: 220.4 g
  APTT: 15.9 s
  Bas: 0%
  Eos: 1.4%
  Fbg: 237.4 mg/dL
  Hb: 12.8 g/dL
  Ht: 38.4%
  Lym: 72.8%
  MCH: 21.6 pg
  MCHC: 33.4%
  MCV: 64.8 fL
  Mono: 10.4%
  Neu: 15.6%
  PT: 11.6 s
  Plat: 131.6 x10_4/uL
  RBC: 593.2 x10_4/ul
  Ret: 7.8%
  WBC: 107.2 x10_2/uL
  LIVER: 11.3 g
  A/G: 2.5
  ALP: 1262 IU/L
  ALT: 38.8 IU/L
  AST: 64.8 IU/L
  BUN: 14.8 mg/dL
  CRE: 0.4 mg/dL
  Ca: 11.3 mg/dL
  Cl: 103.2 meq/L
  DBIL: 0.012 mg/dL
  GLC: 193.6 mg/dL
  IP: 7.3 mg/dL
  K: 4.6 meq/L
  LDH: 105 IU/L
  Na: 139.4 meq/L
  PL: 159.6 mg/dL
  RALB: 4 g/dL
  TBIL: 0.034 mg/dL
  TC: 90 mg/dL
  TG: 116 mg/dL
  TP: 5.6 g/dL
  gamma-GTP: 0.4 IU/L
